Data taken from patent US20260365664A1, “HARRINGTONINE DERIVATIVE, PHARMACEUTICAL COMPOSITION THEREOF, PREPARATION METHOD THEREFOR, AND USE THEREOF” (NANKAI UNIVERSITY, priority 2022, published 2026).

Tests used:
Format in all cases: cell-based
[1] = tested on: human breast cancer cell MCF-7; assay: MTT in vitro cell growth inhibition, human breast cancer cell MCF-7 (48 h); conditions: MCF7, MCF-7 cells
Protocol: (§1) Human breast cancer cell MCF-7, hepatocellular carcinoma cell HepG2, lung adenocarcinoma cell A549 were purchased from Shanghai Cell Bank of Chinese Academy of Sciences. Human leukemia cells HL-60, human leukemia cells adriamycin-resistant strain HL-60/ADR, and human glioblastoma cells U-87MG were purchased from Shanghai Chuanqiu Biotechnology Co. Human cervical cancer HeLa was purchased from Shanghai Jikai Gene Chemistry Technology Co. Human colon cancer cells HCT-116, human brain microvascular endothelial cells hCMEC/D3 were preserved by Tianjin Suntech Pharmaceutical Technology Co. Human colon cancer cells Sw620 and human colon cancer cells LoVo were provided by Tianjin Medical University Hospital.
(§2) Human breast cancer cell MCF-7, hepatocellular carcinoma cell HepG2, lung adenocarcinoma cell A549, human leukemia cell HL-60, human leukemia cell adriamycin-resistant strain HL-60/ADR, human glioblastoma cell U-87MG, human cervical carcinoma cell HeLa, human colon carcinoma cell HCT-116, human colon carcinoma cell Sw620, human colon carcinoma cell LoVo, Human brain microvascular endothelial cells HCMEC/D3 were cultured using DMEM medium. The medium was supplemented with 10% fetal bovine serum and 1% double antibody (penicillin+streptomycin), and the culture environment was an incubator filled with 5% CO2 at a temperature of 37 °C, when the cells basically grew all over the bottom of the dish (about 80%-90%), passaging culture was performed.
(§3) Preparation of MTT solution: Weigh 50 mg of MTT, dissolve it in 10 mL of phosphate buffer solution (PBS), dispense it, and store it at 4 °C away from light, it will be effective within two weeks.
(§4) Take the series of compounds diluted with medium to form 1 mg/ml master batch, before use, precise aspiration of the appropriate amount of sample master batch diluted with medium to form working solutions with different concentration gradients, such as 100 μg/ml, 10 μg/ml, 1 μg/ml, 0.1 μg/ml, 0.01 μg/ml, 0.001 μg/ml and so on.
(§5) 1. Take log phase cells, digest, centrifuge and resuspend. The cell density was adjusted to 1×10^5 cells/mL by adding culture medium, and 100 μl of prepared cell suspension per well was added and inoculated into 96-well cell culture plates, after which they were placed in a cell culture incubator for incubation.
(§6) 2. After 24 h of culture, the test group was added 2 μl of the series of compounds with concentrations of 100 μg/ml, 10 μg/ml, 1 μg/ml, 0.1 μg/ml, 0.01 μg/ml, 0.001 μg/ml, and 4 replicate wells were set up for each concentration, as well as a positive control group (etoposide) and a blank control group.
(§7) 3. The 96-well plates were incubated separately for 48 h and then 20 μl of MTT solution (concentration of 5 mg/ml) was added to each well and incubation was continued for 4 hours in the incubator.
(§8) 4. Remove the 96-well plate from the incubator, carefully aspirate the medium in the wells with a micropipette, and add 150 μl of dimethyl sulfoxide to each well, shake to dissolve the crystals completely, and then measure the absorbance OD value using an enzyme counter at 492 nm.
(§9) 5. The test was repeated three times consecutively and the cell inhibition rate was calculated according to the following formula: cell inhibition rate (%)=[1−OD value of the test group/OD of the blank control group)]×100%, and the IC50 value of the half inhibitory concentration of the samples for inhibiting cell growth was calculated.

[2] = tested on: hepatocellular carcinoma cell HepG2; assay: MTT in vitro cell growth inhibition, hepatocellular carcinoma cell HepG2 (48 h); conditions: Homo sapiens, HepG2 cells
Protocol: as §1, §2, §3, §4, §5, §6, §7, §8, §9

[3] = tested on: human colon cancer cells Sw620; assay: MTT in vitro cell growth inhibition, human colon cancer cells Sw620 (48 h); conditions: SW-620
Protocol: as §1, §2
(§10) Preparation of MTT solution: Weigh 50 mg of MTT, dissolve it in 10 mL of phosphate buffer solution (PBS), dispense it, and store it at 4 °C away from light, it will be effective within two weeks. […]
(§11) 4. Remove the 96-well plate from the incubator, carefully aspirate the medium in the wells with a micropipette, and add 150 μl of dimethyl sulfoxide to each well, shake to dissolve the crystals completely, and then measure the absorbance OD value using an enzyme counter at 492 nm. […]

[4] = tested on: lung adenocarcinoma cell A549; assay: MTT in vitro cell growth inhibition, lung adenocarcinoma cell A549 (48 h); conditions: Homo sapiens, A549 cells
Protocol: as §1, §2, §3, §4, §5, §6, §7, §8, §9

[5] = tested on: human colon cancer cells LoVo; assay: MTT in vitro cell growth inhibition, human colon cancer cells LoVo (48 h)
Protocol: as §1, §2, §10, §11

[6] = tested on: human leukemia cells HL-60; assay: MTT in vitro cell growth inhibition, human leukemia cells HL-60 (48 h); conditions: HL-60 cells
Protocol: as §1, §2, §3, §4, §5, §6, §7, §8, §9

[7] = tested on: human cervical cancer HeLa; assay: MTT in vitro cell growth inhibition, human cervical cancer HeLa (48 h); conditions: HeLa cells
Protocol: as §1, §2, §10, §11

[8] = tested on: human colon cancer cells HCT-116; assay: MTT in vitro cell growth inhibition, human colon cancer cells HCT-116 (48 h); conditions: HCT116 cells
Protocol: as §1, §2, §3, §4, §5, §6, §7, §8, §9

[9] = tested on: human brain microvascular endothelial cells hCMEC/D3; assay: MTT in vitro cell growth inhibition, human brain microvascular endothelial cells hCMEC/D3 (48 h)
Protocol: as §1, §2, §3, §4, §5
2. […]
as §11

| Structure (SMILES) | IC50 [1] | IC50 [2] | IC50 [4] | IC50 [6] | further results |
| --- | --- | --- | --- | --- | --- |
| COC(=O)C[C@](O)(CCc1cccc(NC(=O)Nc2ccc(C)cc2)c1)C(=O)O[C@@H]1C(OC)=C[C@]23CCCN2CCc2cc4c(cc2[C@H]13)OCO4 [Compound I-1-1] | 4.3 nM | 25 nM |  |  |  |
| COC(=O)C[C@](O)(CCc1cccc(NC(=O)NC2CCCC2)c1)C(=O)O[C@@H]1C(OC)=C[C@]23CCCN2CCc2cc4c(cc2C13)OCO4 (stereo partly drawn) [Compound I-1-2] | 0.5 nM | 14 nM | 70 nM | 7.7 nM | IC50 [3]: 12 nM; IC50 [5]: 57 nM |
| COC(=O)C[C@](O)(CCc1cccc(NC(=O)NC2CCCCC2)c1)C(=O)O[C@@H]1C(OC)=C[C@]23CCCN2CCc2cc4c(cc2C13)OCO4 (stereo partly drawn) [Compound I-1-9] |  |  |  | 8.9 nM |  |
| COC(=O)C[C@](O)(CCc1cccc(NC(=O)Nc2ccc(OC)cc2)c1)C(=O)O[C@@H]1C(OC)=C[C@]23CCCN2CCc2cc4c(cc2C13)OCO4 (stereo partly drawn) [Compound I-1-22] |  |  |  | 13.5 nM |  |
| COC(=O)C[C@@](O)(CCc1cccc([N+](=O)[O-])c1)C(=O)O[C@@H]1C(OC)=C[C@]23CCCN2CCc2cc4c(cc2C13)OCO4 (stereo partly drawn) [Compound I-2-2] | 14 nM | 29 nM |  |  |  |
| COC(=O)C[C@](O)(CCc1cccc(N)c1)C(=O)O[C@@H]1C(OC)=C[C@]23CCCN2CCc2cc4c(cc2[C@H]13)OCO4 [Compound I-2-5] | 11 nM | 40 nM |  | 3.1 nM |  |
| COC(=O)C[C@](O)(CCc1cccc(NC(C)=O)c1)C(=O)O[C@@H]1C(OC)=C[C@]23CCCN2CCc2cc4c(cc2[C@H]13)OCO4 [Compound I-2-9] | 34 nM | 48 nM |  | 3.3 nM |  |
| COC(=O)C[C@](O)(CCCC(F)(F)F)C(=O)O[C@@H]1C(OC)=C[C@]23CCCN2CCc2cc4c(cc2[C@H]13)OCO4 [Compound I-2-29] |  |  | 61 nM |  | IC50 [7]: 25 nM |
| COC(=O)C[C@](O)(CCC(F)(F)C(F)(F)F)C(=O)O[C@@H]1C(OC)=C[C@]23CCCN2CCc2cc4c(cc2[C@H]13)OCO4 [Compound I-2-30] |  |  | 21 nM |  | IC50 [7]: 28 nM |
| COC(=O)C[C@](O)(CCc1cccc(F)c1F)C(=O)O[C@@H]1C(OC)=C[C@]23CCCN2CCc2cc4c(cc2[C@H]13)OCO4 [Compound I-2-35] | 110 nM | 23 nM | 60 nM |  |  |
| COC(=O)C[C@](O)(CCc1ccccc1C(F)(F)F)C(=O)O[C@@H]1C(OC)=C[C@]23CCCN2CCc2cc4c(cc2[C@H]13)OCO4 [Compound I-2-38] | 220 nM | 75 nM | 290 nM |  |  |
| COC(=O)C[C@](O)(CCc1ccc(SC)cc1)C(=O)O[C@@H]1C(OC)=C[C@]23CCCN2CCc2cc4c(cc2[C@H]13)OCO4 [Compound I-2-41] | 60 nM | 10 nM | 150 nM |  |  |
| COC(=O)C[C@](O)(CCc1cccc2ccccc12)C(=O)O[C@@H]1C(OC)=C[C@]23CCCN2CCc2cc4c(cc2[C@H]13)OCO4 [Compound I-2-43] |  | 15 nM |  |  |  |
| COC(=O)C[C@](O)(CCc1ccc2ccccc2c1)C(=O)O[C@@H]1C(OC)=C[C@]23CCCN2CCc2cc4c(cc2[C@H]13)OCO4 [Compound I-2-44] | 65 nM | 95 nM | 20 nM | 8.7 nM |  |
| COC(=O)C[C@](O)(CCc1ccc(OC)cc1)C(=O)O[C@@H]1C(OC)=C[C@]23CCCN2CCc2cc4c(cc2[C@H]13)OCO4 [Compound I-2-45] | 90 nM | 17 nM | 210 nM |  |  |
| COC1=C[C@]23CCCN2CCc2cc4c(cc2[C@@H]3[C@@H]1OC(=O)C(O)(CCC(C)C)CC(=O)SC)OCO4 (stereo partly drawn) [Compound I-2-52] |  |  |  |  | IC50 [8]: 46 nM |
| COC1=C[C@]23CCCN2CCc2cc4c(cc2[C@@H]3[C@@H]1OC(=O)C(O)(C/C=N\OC(C)=O)CCC(C)C)OCO4 (stereo partly drawn) [Compound I-3-13] |  |  | 45 nM | 18 nM | IC50 [8]: 16 nM |
| CCCCC(O)(C/C=N\OC(C)=O)C(=O)O[C@@H]1C(OC)=C[C@]23CCCN2CCc2cc4c(cc2[C@H]13)OCO4 (stereo partly drawn) [Compound I-3-14] |  |  | 44 nM |  | IC50 [8]: 69 nM |
| COC1=C[C@]23CCCN2CCc2cc4c(cc2[C@@H]3[C@@H]1OC(=O)C(O)(C/C=N/OC(C)=O)CCC=C(C)C)OCO4 (stereo partly drawn) [Compound I-3-15] |  |  | 83 nM |  |  |
| C=CC(=O)O/N=C/CC(O)(CCC(C)C)C(=O)O[C@@H]1C(OC)=C[C@]23CCCN2CCc2cc4c(cc2[C@H]13)OCO4 (stereo partly drawn) [Compound I-3-22] |  |  | 39 nM |  | IC50 [8]: 48 nM |
| COC1=C[C@]23CCCN2CCc2cc4c(cc2[C@@H]3[C@@H]1OC(=O)C(O)(C/C=N\OC(=O)C(C)C)CCC(C)C)OCO4 (stereo partly drawn) [Compound I-3-23] |  |  | 21 nM | 34 nM | IC50 [8]: 71 nM |
| CCCCC(O)(C/C=N\OC(=O)C(C)C)C(=O)O[C@@H]1C(OC)=C[C@]23CCCN2CCc2cc4c(cc2[C@H]13)OCO4 (stereo partly drawn) [Compound I-3-24] |  |  | 36 nM | 67 nM | IC50 [8]: 24 nM; IC50 [9]: 245 nM |
| COC1=C[C@]23CCCN2CCc2cc4c(cc2[C@@H]3[C@@H]1OC(=O)C(O)(C/C=N\OC(=O)C(C)C)CCC=C(C)C)OCO4 (stereo partly drawn) [Compound I-3-25] |  |  | 92 nM |  |  |
| COC1=C[C@]23CCCN2CCc2cc4c(cc2[C@@H]3[C@@H]1OC(=O)C(O)(C/C=N/OC(=O)[C@H](C)c1ccc2cc(OC)ccc2c1)CCC(C)C)OCO4 (stereo partly drawn) [Compound I-3-31] |  |  | 21 nM | 20 nM | IC50 [3]: 3.4 nM; IC50 [9]: 24 nM; IC50 [5]: 45 nM |
| COC1=C[C@]23CCCN2CCc2cc4c(cc2[C@@H]3[C@@H]1OC(=O)C(O)(C/C=N/OC(=O)[C@H](C)c1ccc2cc(OC)ccc2c1)CCc1ccc2c(c1)CCO2)OCO4 (stereo partly drawn) [Compound I-3-34] |  |  | 283 nM |  | IC50 [8]: 26 nM |
| COC1=C[C@]23CCCN2CCc2cc4c(cc2[C@@H]3[C@@H]1OC(=O)C(O)(C/C=N/OC(=O)NC1CCCC1)CCC(C)C)OCO4 (stereo partly drawn) [Compound I-3-46] |  |  | 53 nM | 42 nM | IC50 [9]: 60 nM |
| COC(=O)C[C@](O)(CCCC(C)(C)O)C(=O)O[C@@H]1C(OC)=C[C@]23CCCN2CCc2cc4c(cc2[C@H]13)OCO4 [HHT, homoharringtonine, reference compound] | 40 nM | 22 nM | 190 nM | 40 nM | IC50 [8]: 26 nM; IC50 [3]: 35 nM; IC50 [7]: 34 nM; IC50 [9]: 171 nM; IC50 [5]: 335 nM |
